# Data taken from US20100113530A1, “S1P LYASE INHIBITORS FOR THE TREATMENT OF CEREBRAL MALARIA” (priority 2008, published 2010).
# How the values were obtained:
# CD8+ T cells = experiment: Cerebral malaria model: flow cytometry of tail vein blood for B and T cell levels; assay type: in vivo, C56B1/6 mice; conditions: first dose one day before infection, blood taken 24 h after first dose, FIG. 1
# Protocol: (§1) FIGS. 1 and 2 show results of an experiment using three groups of 10 female C56B1/6 mice. The mice in all three groups were infected with 1 million parasites (P. berghei ANKA) i.p. in 500 μl of media. The first group was the control group. The S1P lyase inhibitor (E)-1-(4-((1R,2S,3R)-1,2,3,4-tetrahydroxybutyl)-1H-imidazol-2-yl)-ethanone oxime was administered i.p. (100 mg/kg) to the mice in the second group, and was administered by gavage (100 mg/kg) to the mice in the third group. The drug was administered daily, and was first administered one day before infection.
# (§2) Twenty four hours after the drug was first administered, tail vein blood was taken from the mice, and flow cytometry analysis was used to assess the levels of B and T cells, using antibodies to CD3, CD4, CD8 and CD19. The animals were monitored daily for body weight, hematocrit, and parasitaemia, and twice daily for survival.
# P. berghei ANKA = experiment: Cerebral malaria model: survival of infected mice; assay type: in vivo, C56B1/6 mice; conditions: first dose one day before infection, FIG. 2
# Protocol: as §1, §2
structure (smiles),measurement,setting,value
"C/C(=N\O)c1nc([C@@H](O)[C@H](O)[C@H](O)CO)c[nH]1 [(E)-1-(4-((1R,2S,3R)-1,2,3,4-tetrahydroxybutyl)-1H-imidazol-2-yl)-ethanone oxime]",CD8+ T cells as compared to untreated control group,CD8+ T cells; gavage 100 mg/kg daily,decreased CD8+ T cells
same,CD8+ T cells as compared to untreated control group,CD8+ T cells; i.p. 100 mg/kg daily,decreased CD8+ T cells
same,survival as compared to control group,P. berghei ANKA; gavage 100 mg/kg daily,lived significantly longer
same,survival as compared to control group,P. berghei ANKA; i.p. 100 mg/kg daily,lived significantly longer
